The test system of assay [1] is cGAS activity in Reporter THP1 cell line. As to the kind of experiment: Cellular assay to measure cGAS activity: ISRE-Gaussia luciferase reporter THP1 cells transfected with ISD. In kind it is cell-based. To be noted: Homo sapiens. The method, boiled down: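 THP1 ISRE-Gaussia luciferase reporter cells (0.3×10^6/well) pre-incubated 5 min with compound serial dilutions, then lipofectamine-transfected with 2 μg/mL ISD (45 bp DNA) or mock. Secreted luciferase read 16 h later with 1 μM coelenterazine at pH 6.5; IC50 from fold increase over mock. Specificity counter-screen used 2 μg/mL poly(I:C) or Sendai virus 50 Unit/mL.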

Assay [2] concerns the target T1, recombinant human cGAS (aa147-522) (Homo sapiens, UniProt Q8N884).
T1 construct: recombinant human cGAS (aa147-522); His6-SUMO (cleaved yes); made in house; host or cells: E. coli BL21/pLys
Put plainly: In vitro inhibition assay of cGAS activity (ATP consumption, KinaseGlo Max). It is filed as biochemical. Conditions: Table 3, read-out: cGAS Inhibition Results IC50. The method, boiled down: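 De-tagged recombinant human cGAS (aa147-522, 1.5 μg/mL) was incubated 20 min at 37 °C with herring testis DNA, 6.6 μM ATP and 0.1 mM GTP in Tris pH 7.5/MgCl2 buffer plus serial compound dilutions. Remaining ATP was read by KinaseGlo Max luminescence, and IC50 was fitted from % ATP consumption versus log concentration.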

Setting [3] is: THP-1, Table 4, Gaussia luciferase.
Where [4] appears, read: THP-1, untitled table after Table 4 (continuation).

T1 sequence (Q8N884 147-522): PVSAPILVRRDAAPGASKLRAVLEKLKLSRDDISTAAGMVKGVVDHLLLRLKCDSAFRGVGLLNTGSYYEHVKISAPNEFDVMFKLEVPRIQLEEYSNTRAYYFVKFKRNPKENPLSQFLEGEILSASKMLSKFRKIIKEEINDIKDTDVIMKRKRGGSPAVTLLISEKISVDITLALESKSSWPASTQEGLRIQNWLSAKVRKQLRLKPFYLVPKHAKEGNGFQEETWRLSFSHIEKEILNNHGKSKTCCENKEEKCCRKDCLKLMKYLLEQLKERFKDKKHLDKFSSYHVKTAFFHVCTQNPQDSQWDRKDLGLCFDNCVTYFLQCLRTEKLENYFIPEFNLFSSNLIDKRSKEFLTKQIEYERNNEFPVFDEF

In general, IC50 refers to the point on the concentration scale where inhibition reaches its midpoint. As for `O=C(O)c1ccn(C[C@@H]2CCCN2c2cc(-n3ccnc3)c3ccc(Cl)c(Cl)c3n2)c1` [I-732], the IC50 in assay [1] (setting [3]) and in assay [2] was under 2000 nM each time.

On to `O=C(O)c1ccccc1OC[C@@H]1CCCN1c1cc(-n2ccnc2)c2ccc(Cl)c(Cl)c2n1` [I-733], for which the IC50 in assay [1] (setting [3]) and in assay [2] was under 2000 nM throughout.

For `O=C(O)Cc1ccccc1OC[C@@H]1CCCN1c1cc(-n2ccnc2)c2ccc(Cl)c(Cl)c2n1` [I-734], the half-maximal inhibitory concentration (IC50) in assay [1] (setting [3]) and in assay [2] was under 2000 nM each time.

For the compound `O=C(O)c1cccc(OC[C@@H]2CCCN2c2cc(-n3ccnc3)c3ccc(Cl)c(Cl)c3n2)c1` [I-735, (S)-3-((1-(7,8-dichloro-4-(1H-imidazol-1-yl)quinolin-2-yl)pyrrolidin-2-yl)methoxy)benzoic acid], the concentration for half-maximal inhibition (IC50) in assay [1] (setting [3]) was 2000 to 10000 nM; in assay [2] it was under 2000 nM.

In the case of `O=C(O)Cc1cccc(OC[C@@H]2CCCN2c2cc(-n3ccnc3)c3ccc(Cl)c(Cl)c3n2)c1` [I-736], the IC50 in assay [1] (setting [3]) and in assay [2] was under 2000 nM in each case.

Regarding `O=C(O)CCCC1CCCN(c2cc(-n3ccnc3)c3ccc(Cl)c(Cl)c3n2)C1` (stereo not shown) [I-739], the IC50 in assay [1] (setting [3]) and in assay [2] was under 2000 nM each time.

For the compound `O=C(O)COC[C@@H]1CN(c2cc(-c3cn[nH]c3)c3ccc(Cl)c(Cl)c3n2)CCO1` [I-740], the figures for the 50% inhibitory concentration (IC50) in assay [1] (setting [3]) and in assay [2] were over 10000 nM and under 2000 nM, respectively.

For `O=C(O)CCOC[C@@H]1CN(c2cc(-c3cn[nH]c3)c3ccc(Cl)c(Cl)c3n2)CCO1` [I-741], the IC50 in assay [1] (setting [3]) is 2000 to 10000 nM; in assay [2], under 2000 nM.

For `O=C(O)COC[C@@H]1CN(c2cc(-n3ccnc3)c3ccc(Cl)c(Cl)c3n2)CCO1` [I-742], the values for the IC50 in assay [1] (setting [3]) and in assay [2] were over 10000 nM and under 2000 nM, respectively.

As for `O=C(O)COC[C@H]1CCCN(c2cc(-n3ccnc3)c3ccc(Cl)c(Cl)c3n2)C1` [I-743], the IC50 in assay [1] (setting [3]) and in assay [2] was under 2000 nM in each case.

Turning to `O=C(O)COC[C@@H]1CCCN(c2cc(-n3ccnc3)c3ccc(Cl)c(Cl)c3n2)C1` [I-744], the IC50 in assay [1] (setting [3]) and in assay [2] was under 2000 nM each time.

Turning to `O=C(O)CCOC[C@H]1CCCN(c2cc(-n3ccnc3)c3ccc(Cl)c(Cl)c3n2)C1` [I-745], the IC50 in assay [1] (setting [3]) and in assay [2] was under 2000 nM throughout.

Consider `O=C(O)CCOC[C@@H]1CCCN(c2cc(-c3cn[nH]c3)c3ccc(Cl)c(Cl)c3n2)C1` [I-747], for which the IC50 in assay [1] (setting [3]) and in assay [2] was under 2000 nM throughout.

For `O=C(O)CCOCC1CC(O)CN(c2cc(-n3ccnc3)c3ccc(Cl)c(Cl)c3n2)C1` (stereo not shown) [I-748], the results for the IC50 in assay [1] (setting [3]) and in assay [2] were over 10000 nM and under 2000 nM, respectively.

With `O=C(O)CCOCC1CC(F)CN(c2cc(-n3ccnc3)c3ccc(Cl)c(Cl)c3n2)C1` (stereo not shown) [I-749], the concentration for half-maximal inhibition (IC50) in assay [1] (setting [3]) and in assay [2] was under 2000 nM throughout.

As to `O=C(O)CCOC[C@@H]1CCCN(c2cc(-n3ccnc3)c3ccc(Cl)c(Cl)c3n2)C1` [I-750], the IC50 in assay [1] (setting [3]) and in assay [2] was under 2000 nM throughout.

For `COC(=O)COC[C@@H]1CN(c2cc(-c3cn[nH]c3)c3ccc(Cl)c(Cl)c3n2)CCO1` [I-751], the IC50 in assay [1] (setting [3]) is 2000 to 10000 nM; in assay [2], under 2000 nM.

`COC(=O)CCOC[C@@H]1CN(c2cc(-c3cn[nH]c3)c3ccc(Cl)c(Cl)c3n2)CCO1` [I-752]: the concentration for half-maximal inhibition (IC50) in assay [1] (setting [3]) is over 10000 nM; in assay [2], under 2000 nM.

`COC(=O)CCNC[C@@H]1CCCN1c1cc(-n2ccnc2)c2ccc(Cl)c(Cl)c2n1` [I-753, methyl (S)-3-(((1-(7,8-dichloro-4-(1H-imidazol-1-yl)quinolin-2-yl)pyrrolidin-2-yl)methyl)amino)propanoate]: the results for the half-maximal inhibitory concentration (IC50) in assay [1] (setting [3]) and in assay [2] were over 10000 nM and over 30000 nM, respectively.

For `COC(=O)CCN(C)C[C@@H]1CCCN1c1cc(-n2ccnc2)c2ccc(Cl)c(Cl)c2n1` [I-755, methyl (S)-3-(((1-(7,8-dichloro-4-(1H-imidazol-1-yl)quinolin-2-yl)pyrrolidin-2-yl)methyl)(methyl)amino)propanoate], the IC50 was over 10000 nM in assay [1] (setting [4]) and over 30000 nM in assay [2].

For `O=C(O)CCNC[C@@H]1CCCN1c1cc(-n2ccnc2)c2ccc(Cl)c(Cl)c2n1` [I-756, (5)-3-(((1-(7,8-dichloro-4-(1H-imidazol-1-yl)quinolin-2-yl)pyrrolidin-2-yl)methyl)amino)propanoic acid], the values for the IC50 in assay [1] (setting [4]) and in assay [2] were over 10000 nM and 2000 to 30000 nM, respectively.

Turning to `COC(=O)CCC(=O)NNc1cc(-n2ccnc2)c2ccc(Cl)c(Cl)c2n1` [I-758], the concentration for half-maximal inhibition (IC50) was over 10000 nM in assay [1] (setting [4]) and 2000 to 30000 nM in assay [2].

As for `O=C(O)CCC(=O)NNc1cc(-n2ccnc2)c2ccc(Cl)c(Cl)c2n1` [I-759], the concentration for half-maximal inhibition (IC50) in assay [1] (setting [4]) was over 10000 nM; in assay [2], under 2000 nM.

Turning to `NC(=O)COC[C@@H]1CCCN1c1cc(-n2ccnc2)c2ccc(Cl)c(Cl)c2n1` [I-760, (S)-2-((1-(7,8-dichloro-4-(1H-imidazol-1-yl)quinolin-2-yl)pyrrolidin-2-yl)methoxy)acetamide], the figures for the IC50 in assay [1] (setting [4]) and in assay [2] were over 10000 nM and under 2000 nM, respectively.

Consider `O=C(COC[C@@H]1CCCN1c1cc(-n2ccnc2)c2ccc(Cl)c(Cl)c2n1)NO` [I-761], for which the IC50 is over 10000 nM in assay [1] (setting [4]) and under 2000 nM in assay [2].

As for `N#CNC(=O)COC[C@@H]1CCCN1c1cc(-n2ccnc2)c2ccc(Cl)c(Cl)c2n1` [I-762], the results for the IC50 in assay [1] (setting [4]) and in assay [2] were over 10000 nM and under 2000 nM, respectively.

In the case of `CC(=O)N[C@H]1CCN(c2cc(-n3ccnc3)c3ccc(Cl)c(Cl)c3n2)C1` [I-764, (S)—N-(1-(7,8-dichloro-4-(1H-imidazol-1-yl)quinolin-2-yl)pyrrolidin-3-yl)acetamide], the IC50 in assay [1] (setting [4]) was over 10000 nM; in assay [2] it was under 2000 nM.

Take `N[C@H]1CCN(c2cc(-n3ccnc3)c3ccc(Cl)c(Cl)c3n2)C1` [I-765, (S)-1-(7,8-dichloro-4-(1H-imidazol-1-yl)quinolin-2-yl)pyrrolidin-3-amine]: the IC50 in assay [1] (setting [4]) fell in the range of 2000 to 10000 nM; in assay [2], 2000 to 30000 nM.

As to `O=C(O)CCOC[C@@H]1CCN(c2cc(-n3ccnc3)c3ccc(Cl)c(Cl)c3n2)C1` [I-773], the 50% inhibitory concentration (IC50) in assay [1] (setting [4]) and in assay [2] was under 2000 nM in each case.

Take `O=C1C[C@@H]2[C@@H](CCN2c2cc(-n3ccnc3)c3ccc(Cl)c(Cl)c3n2)O1` [I-774, (3aR,6aR)-4-(7,8-dichloro-4-(1H-imidazol-1-yl)quinolin-2-yl)hexahydro-2H-furo[3,2-b]pyrrol-2-one]: the 50% inhibitory concentration (IC50) was 2000 to 10000 nM in assay [1] (setting [4]) and under 2000 nM in assay [2].

For the compound `O=C1OCC2CCN(c3cc(-n4ccnc4)c4ccc(Cl)c(Cl)c4n3)C12` (stereo not shown) [I-775, 1-(7,8-dichloro-4-(1H-imidazol-1-yl)quinolin-2-yl)hexahydro-6H-furo[3,4-b]pyrrol-6-one], the IC50 was 2000 to 10000 nM in assay [1] (setting [4]) and under 2000 nM in assay [2].

With `O=C(O)C[C@H]1CCCN1c1cc(-n2ccnc2)c2ccc(Cl)c(Cl)c2n1` [I-776], the 50% inhibitory concentration (IC50) in assay [1] (setting [4]) is over 10000 nM; in assay [2] it was under 2000 nM.

For `C[C@@H]1CN(c2cc(-n3ccnc3)c3ccc(Cl)c(Cl)c3n2)[C@H](C(=O)O)[C@H]1O` [I-778], the results for the IC50 in assay [1] (setting [4]) and in assay [2] were over 10000 nM and 2000 to 30000 nM, respectively.

`CCOC(=O)[C@@H]1[C@@H](O)[C@H](C)CN1c1cc(-n2ccnc2)c2ccc(Cl)c(Cl)c2n1` [I-779]: the IC50 was over 10000 nM in assay [1] (setting [4]) and 2000 to 30000 nM in assay [2].

For `C[C@H]1[C@@H](C(=O)O)N(c2cc(-n3ccnc3)c3ccc(Cl)c(Cl)c3n2)C[C@@H]1O` [I-780], the IC50 is over 10000 nM in assay [1] (setting [4]) and 2000 to 30000 nM in assay [2].

Turning to `O=C(O)C[C@@H]1[C@H](O)CCN1c1cc(-n2ccnc2)c2ccc(Cl)c(Cl)c2n1` [I-781, 2-((2R,3R)-1-(7,8-dichloro-4-(1H-imidazol-1-yl)quinolin-2-yl)-3-hydroxypyrrolidin-2-yl)acetic acid], the IC50 in assay [1] (setting [4]) was over 10000 nM; in assay [2] it was under 2000 nM.

As for `O=C(O)CCNC(=O)[C@@H]1[C@@H](O)CCN1c1cc(-n2ccnc2)c2ccc(Cl)c(Cl)c2n1` [I-784, 3-((2S,3S)-1-(7,8-dichloro-4-(1H-imidazol-1-yl)quinolin-2-yl)-3-hydroxypyrrolidine-2-carboxamido)propanoic acid], the IC50 is over 10000 nM in assay [1] (setting [4]) and under 2000 nM in assay [2].

As for `O=C(O)C[C@@H]1[C@@H](O)CCN1c1cc(-n2ccnc2)c2ccc(Cl)c(Cl)c2n1` [I-785, 2-((2R,3S)-1-(7,8-dichloro-4-(1H-imidazol-1-yl)quinolin-2-yl)-3-hydroxypyrrolidin-2-yl)acetic acid], the IC50 in assay [1] (setting [4]) was over 10000 nM; in assay [2] it was under 2000 nM.

In the case of `COC(=O)C[C@@H]1[C@@H](O)CCN1c1cc(-n2ccnc2)c2ccc(Cl)c(Cl)c2n1` [I-786, methyl 2-((2R,3S)-1-(7,8-dichloro-4-(1H-imidazol-1-yl)quinolin-2-yl)-3-hydroxypyrrolidin-2-yl)acetate], the IC50 was 2000 to 10000 nM in assay [1] (setting [4]) and under 2000 nM in assay [2].

As to `CCOC(=O)CNC(=O)C[C@@H]1[C@@H](O)CCN1c1cc(-n2ccnc2)c2ccc(Cl)c(Cl)c2n1` [I-787, ethyl (2-((2R,3S)-1-(7,8-dichloro-4-(1H-imidazol-1-yl)quinolin-2-yl)-3-hydroxypyrrolidin-2-yl)acetyl)glycinate], the IC50 in assay [1] (setting [4]) is 2000 to 10000 nM; in assay [2], under 2000 nM.

Turning to `O=C(O)CNC(=O)C[C@@H]1[C@@H](O)CCN1c1cc(-n2ccnc2)c2ccc(Cl)c(Cl)c2n1` [I-788, (2-((2R,3S)-1-(7,8-dichloro-4-(1H-imidazol-1-yl)quinolin-2-yl)-3-hydroxypyrrolidin-2-yl)acetyl)glycine], the half-maximal inhibitory concentration (IC50) in assay [1] (setting [4]) is over 10000 nM; in assay [2], under 2000 nM.

These data come from patent US11873291B2, “Quinoline cGAS antagonist compounds” (ImmuneSensor Therapeutics, Inc., priority 2020, dated 2024).
